# Where a SMILES comes first, the peptide text is derived from it. Bridges are numbered along the chain shown (N, C = ends). [ ]: non-standard residue; d: D form. The star is where a group is joined. Ileψ(thiazoline)Cys = CC[C@H](C)[C@H](N)C1=N[C@H](C(=O)*)CS1; dOrn = NCCC[C@@H](N)C(=O)O
# System: p62-dependent mitophagy
# Test: Luciferase-p62 assay (Fluc-p62 clearance) in mouse embryonic fibroblasts
# Type: cell-based
# Conditions: for Mean Luminescence: Luciferase-p62 assay, mouse embryonic fibroblasts (MEFs), compounds at 10 μM; for % Activity over baseline: percentage of Luciferase-p62 clearance relative to baseline (mean luminescence in the absence of doxycycline induction); for % Activity over baseline / % Activity relative to Rapamycin: MEFs, 10 μM; for % Activity relative to Rapamycin: percentage of activity relative to rapamycin tested in the same experiment at the same concentration
# Outline: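 MEFs with doxycycline-inducible Fluc-p62; after induction, doxycycline removed and cells treated 48 h with compounds at 10 μM. Fluc-p62 clearance, taken as mitophagy, read by ONE-Glo+Tox luciferase with viability. Vehicle (DMSO) as negative control; activity also expressed relative to rapamycin.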
Structure (SMILES),Mean Luminescence,% Activity over baseline [%],% Activity relative to Rapamycin [%]
COc1ccc(/C=C/C(=O)/C=C(O)/C=C/c2ccc(OC)c(OC)c2)cc1OC [ASC-J9],664.12,58.96,106.23
C[C@]12CC[C@@H]3c4ccc(O)cc4CC[C@H]3[C@@H]1CCC2=O [Estrone],670.65,58.55,105.50
O=c1ccc2ccc3occc3c2o1 [Angelicin],910.28,43.74,78.82
CC1(C)[C@@H](OC(=O)CCC(=O)O)CC[C@]2(C)[C@H]3C(=O)C=C4[C@@H]5C[C@@](C)(C(=O)O)CC[C@]5(C)CC[C@@]4(C)[C@]3(C)CC[C@@H]12 [Carbenoxolone disodium],856.44,47.07,84.81
CC(C)=CCOc1ccc(/C=C/C(=O)c2ccc(OCC=C(C)C)cc2OCC(=O)O)cc1 [Sofalcone],760.95,52.97,95.44
C[C@H]1[C@H](C)CC[C@]2(C(=O)O)CC[C@]3(C)C(=CC[C@@H]4[C@@]5(C)CC[C@H](O)C(C)(C)[C@@H]5CC[C@]43C)[C@H]12 [Ursolic acid],905.10,44.06,79.39
CC(C)C(=O)C(=O)O [Ketoisovaleric acid],921.08,43.08,77.61
CCOC(=O)c1c(C)n(C)c2ccc(O)cc12 [Mecarbinate],799.96,50.56,91.10
CCN(CC)CC#CCOC(=O)C(O)(c1ccccc1)C1CCCCC1 (stereo not shown) [Oxybutynin chloride],882.87,45.44,81.87
CC1(C)O[C@H]2CC(=O)OC[C@]23[C@H]2CC[C@@]4(C)[C@H](c5ccoc5)OC(=O)[C@H]5O[C@]54[C@]2(C)C(=O)C[C@@H]13 [Limonin],753.03,53.46,96.33
O=c1cc(-c2ccccc2)oc2c1ccc1ccccc12 [α-Naphthoflavone],781.48,51.70,93.16
C[C@@H]1CC[C@H]2C(C)(C)[C@H]3C[C@@]12CC[C@@]3(C)O [Cedrol],850.22,47.46,85.50
O=c1[nH]cc(F)c(=O)[nH]1 [Fluorouracil (Adrucil)],848.60,47.56,85.68
C[C@]12CCC(=O)C=C1CC[C@@H]1[C@@H]2[C@@H](O)C[C@@]2(C)[C@H]1CC[C@]2(O)C(=O)CO [Hydrocortisone],801.04,50.50,90.98
COC(=O)c1c2c(c3ccccc3c1O)OC(C)(C)C=C2 [Mollugin],709.65,56.14,101.16
CO[C@H]1C[C@H](O[C@H]2CC[C@@]3(C)[C@H](CC[C@@H]4[C@@H]3CC[C@]3(C)[C@@H](C5=CC(=O)OC5)[C@@H](OC(C)=O)C[C@]43O)C2)O[C@@H](C)[C@@H]1O [Oleandrin],766.18,52.65,94.86

Structure (SMILES),Mean Luminescence,% Activity over baseline [%],% Activity relative to Rapamycin [%]
CC(CC(=O)O)CC(=O)O [3-Methylglutaric acid],818.33,49.43,89.05
CC(=O)OCC(=O)[C@@]1(O)[C@H](C)C[C@H]2[C@@H]3CCC4=CC(=O)C=C[C@]4(C)[C@@]3(F)[C@@H](O)C[C@@]21C [Dexamethasone acetate],681.22,57.90,104.32
C[N+](C)(C)CC(O)CC(=O)O.[Cl-] (racemic) [DL-Carnitine HCl],902.01,44.26,79.74
Nc1nc(=O)c2c([nH]1)NCC(CNc1ccc(C(=O)N[C@@H](CCC(=O)O)C(=O)O)cc1)N2C=O (mixture of isomers) [Folinic acid],762.92,52.85,95.22
CC[C@]12CCCN3CCc4c(n(c5ccccc45)[C@@](O)(C(=O)OC)C1)[C@@H]32 [Vincamine],716.24,55.74,100.42
C=C[C@@]1(C)CC(=O)[C@]2(O)[C@@]3(C)[C@@H](O)CCC(C)(C)[C@@H]3[C@H](O)[C@H](OC(C)=O)[C@@]2(C)O1 [Forskolin],911.32,43.68,78.70
CC[C@H](C)[C@H](N)C1=N[C@H](C(=O)N[C@@H](CC(C)C)C(=O)N[C@H](CCC(=O)O)C(=O)N[C@H](C(=O)N[C@H]2CCCCNC(=O)[C@H](CC(N)=O)NC(=O)[C@@H](CC(=O)O)NC(=O)[C@H](Cc3cnc[nH]3)NC(=O)[C@@H](Cc3ccccc3)NC(=O)[C@H]([C@@H](C)CC)NC(=O)[C@@H](CCCN)NC2=O)[C@@H](C)CC)CS1 [Bacitracin] ({Ileψ(thiazoline)Cys}-L[dE]IK[dOrn]I[dF]H[dD]N; lactam 4-C),860.05,46.85,84.41
Oc1cccc(O)c1O [Pyrogallol],936.38,42.13,75.91
O=c1ccn([C@H]2C[C@H](O)[C@@H](CO)O2)c(=O)[nH]1 [Compound 2-Deoxyuridine],867.92,46.36,83.53
O=C(O)CCNC(=O)c1ccccc1 [Betamipron],923.38,,
CC(=O)CCc1ccc(O)cc1 [Raspberry ketone],696.39,56.96,102.63
CN1[C@@H]2CC[C@H]1CC(=O)C2 [Tropinone],896.55,44.59,80.34
O=C1O[C@H]2[C@@H]3OC(=O)c4cc(O)c(O)c(O)c4-c4c(O)c(O)c5oc(=O)c6c(c(O)c(O)c7oc(=O)c4c5c76)-c4c(cc(O)c(O)c4O)C(=O)OC[C@H]3OC(O)[C@@H]2OC(=O)c2cc(O)c(O)c(O)c2-c2c1cc(O)c(O)c2O (mixture of isomers) [Punicalagin],782.52,51.64,93.04
CCCCc1oc2ccc(NS(C)(=O)=O)cc2c1C(=O)c1ccc(OCCCN(CCCC)CCCC)cc1 [Dronedarone],550.43,65.98,118.89
Clc1ccc(COC(Cn2ccnc2)c2ccc(Cl)cc2Cl)c(Cl)c1 (stereo not shown) [Miconazole Nitrate],704.35,56.47,101.75
